The target of data set [1] is T1, yCD (Saccharomyces cerevisiae, UniProt Q12178).
T1 construct: The resulting 474 bp gene was subcloned into pET-15b; histidine tag (pET-15b) (N, cleaved yes); made in house; host or cells: E. coli BL21(DE3)
Put plainly: Enzyme activity of yCD (His tag cleaved). Format: biochemical, S. cerevisiae. The method, then:
(§1) The S. cerevisiae yeast cytosine deaminase (yCD) enzyme was cloned and expressed. The resulting 474 bp gene was subcloned into pET-15b to facilitate purification of the protein via a fused histidine tag and transformed into competent BL21(DE3) cells for protein expression. An estimate of about 25-30 mg of pure yCD-His was collected from a 1-liter culture. Thrombin cleavage of the histidine tag on yCD-His was achieved by incubating the protein for 2 hours at 23° C. in thrombin cleavage buffer. Enzyme activity characteristics for yCD and yCD-His was investigated using both the prodrug 5FC and the enzyme's natural substrate, the DNA base cytosine. Five-FC turnover rates remained within 10^5 M^−1·s^−1 (Table 1) for both proteins (see E. Kievit et al. Cancer Res. 2000, 60:6649-6655). The diffusion controlled limit for extremely efficient enzymes and their substrates in solution is in the range 10^8-10^9 M^−1·s^−1, therefore it was concluded that yCD was a very efficient pretargeting enzyme for catalyzing 5FC to 5FU conversion, especially applicable to GDEPT.

For data set [2] the following is noted: cited from earlier work; for LogP (Drug): drug named.
For data set [3], the target named is T2, yCD-His (Saccharomyces cerevisiae, UniProt Q12178).
T2 construct: The resulting 474 bp gene was subcloned into pET-15b; made in house; host or cells: E. coli BL21(DE3)
T2 sequence (Q12178 whole entry): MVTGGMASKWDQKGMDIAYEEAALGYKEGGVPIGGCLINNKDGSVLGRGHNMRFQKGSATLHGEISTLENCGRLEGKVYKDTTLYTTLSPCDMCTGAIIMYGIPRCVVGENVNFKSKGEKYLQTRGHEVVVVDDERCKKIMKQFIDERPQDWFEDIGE
Nature of the data set: Enzyme activity of yCD-His (substrate turnover). Format: biochemical, S. cerevisiae. As for the experimental part: as §1

Data set [4] concerns MDA-MB-231. Particulars: reported on the National Cancer Institute website; cited from earlier work.
Data set [5] concerns MDA-MB-231. Put plainly: 5FU toxicity in MDA-MB-231 (drug concentration vs. % cell death, Hill-Slope fit). Particulars: Homo sapiens; MDA-MB-231, % cell death, Hill-Slope curve fit. Format: cell-based.

This is an account of results in US20090232762A1, “COMPOSITIONS FOR DELIVERY OF THERAPEUTIC AGENTS” (priority 2008, published 2009).

Where two headings read alike, the source gives them in different places.

T1 sequence (Q12178 whole entry): as above

With `Nc1nc(=O)[nH]cc1F` [5-FC, 5-fluorocytosine], the results for the kcat in data set [1] and in data set [3] were 448 s⁻¹ and 315 s⁻¹, respectively. Also, in data set [2] (prodrug column), the “LogP (Prodrug)” value is recorded as −1.79.
Take `O=c1[nH]cc(F)c(=O)[nH]1` [5-FU, 5-fluorouracil]: the concentration for half-maximal inhibition (IC50) in data set [4] is 900 nM; in data set [5] it was 2900 nM. The “LogP (Drug)” value in data set [2] is recorded as −2.17.
Regarding `COc1cccc2c1C(=O)c1c(O)c3c(c(O)c1C2=O)C[C@@](O)(C(=O)CO)C[C@@H]3O[C@H]1C[C@H](N)[C@H](O)[C@H](C)O1` [DOX, doxorubicin], in data set [2], the “LogP (Drug)” value is listed as “+0.36”.
Take `CCc1c2c(nc3ccc(O)cc13)-c1cc3c(c(=O)n1C2)COC(=O)[C@]3(O)CC` [SN-38, 7-ethyl-10-hydroxycamptothecin]: the “LogP (Drug)” value in data set [2] is recorded as “+2.02”.
With `Nc1cc[nH]c(=O)n1` [Cytosine, cytosine], the figures for the turnover number (kcat) in data set [1] and in data set [3] were 741 s⁻¹ and 607 s⁻¹, respectively.

By kcat is commonly meant the number of substrate molecules converted per active site and unit of time at saturation. One may read the IC50 as the point on the concentration scale where inhibition reaches its midpoint.
